Measured values: ChEMBL document CHEMBL1158633, “Synthesis and biological activity of alpha-glucosyl C24:0 and C20:2 ceramides” (2010)

What follows are compounds tested on iNKT (assay: Induction of cellular expansion in human iNKT cells at 250 nM after 8 days).
Format: functional

**Q.** How did the Activity turn out when `CCCCC/C=C\C/C=C\CCCCCCCCCC(=O)N[C@@H](CO[C@H]1O[C@H](CO)[C@@H](O)[C@H](O)[C@H]1O)[C@H](O)[C@H](O)CCCCCCCCCCCCCC` was run?
**A.** Its Activity is 33%.

**Q.** Which Activity does the source give for `CCCCCCCCCCCCCCCCCCCCCCCCCC(=O)N[C@@H](CO[C@H]1O[C@H](CO)[C@H](O)[C@H](O)[C@H]1O)[C@H](O)[C@H](O)CCCCCCCCCCCCCC` [RGI-7000] here?
**A.** Its Activity is 34%.

**Q.** `CCCCC/C=C\C/C=C\CCCCCCCCCC(=O)N[C@@H](CO[C@H]1O[C@H](CO)[C@H](O)[C@H](O)[C@H]1O)[C@H](O)[C@H](O)CCCCCCCCCCCCCC` was tested. Which Activity did it give?
**A.** The Activity was 37%.
